These results are taken from ChEMBL document CHEMBL5230086, “Contemporary approaches and future perspectives of antibacterial photodynamic therapy (aPDT) against methicillin-resistant Staphylococcus aureus (MRSA): A systematic review” (Eur J Med Chem, 2020).

Structures are written as SMILES.

The subject of data set [1] is Staphylococcus aureus. In words: Photodynamic antibacterial activity against Methicillin-resistant Staphylococcus aureus assessed as reduction in bacterial growth at 0.01 % followed by photo-irradiation with 5405 J/cm^2 light for 30 min by microscopic analysis. It is filed as functional. Further details: scale not given: the % may be the effect or the level left. Conditions: 0.5 h.

For data set [2], the system named is Staphylococcus aureus. In words: Photodynamic antibacterial activity against Methicillin-resistant Staphylococcus aureus clinical isolate 1 assessed as reduction in bacterial growth at 0.01 % followed by photo-irradiation with 5.4 J/cm^2 light for 30 min by microscopic analysis. The settings on record: 0.5 h. It is filed as functional. Further details: scale not given: the % may be the effect or the level left.

The subject of data set [3] is Staphylococcus aureus. Nature of the data set: Photodynamic antibacterial activity against Methicillin-resistant Staphylococcus aureus clinical isolate 2 assessed as reduction in bacterial growth at 0.01 % followed by photo-irradiation with 5.4 J/cm^2 light for 30 min by microscopic analysis. It is filed as functional. Conditions: 0.5 h. Further details: scale not given: the % may be the effect or the level left.

Data set [4] has as its system Staphylococcus aureus. Nature of the data set: Photodynamic antibacterial activity against Methicillin-resistant Staphylococcus aureus ATCC 43300 assessed as reduction in bacterial growth at 0.01 % followed by photo-irradiation with 412 nm at 5.4 J/cm^2 light for 10 min by microscopic analysis. It is filed as functional. Further details: scale not given: the % may be the effect or the level left.

In data set [5] the test system is Staphylococcus aureus. In words: Photodynamic antibacterial activity against Methicillin-resistant Staphylococcus aureus ATCC 43300 assessed as reduction in bacterial growth at 0.01 % followed by photo-irradiation with 450 nm at 5.4 J/cm^2 light for 10 min by microscopic analysis. It is filed as functional. Further details: scale not given: the % may be the effect or the level left.

For data set [6], the system named is Staphylococcus aureus. In words: Photodynamic antibacterial activity against Methicillin-resistant Staphylococcus aureus assessed as reduction in bacterial colony forming unit at 8 uM followed by photo-irradiation with 30 J/cm^2 light. It is filed as functional.
Data set [7] relates to Staphylococcus aureus. Nature of the data set: Photodynamic antibacterial activity against Methicillin-resistant Staphylococcus aureus assessed as reduction in bacterial growth followed by photo-irradiation with 25 J/cm^2 light for 15 mins by crystal violet staining assay. The settings on record: 0.25 h. It is filed as functional. Also on record: scale not given: the % may be the effect or the level left.

Data set [8] has as its system Neutrophil. In words: Cytotoxicity against C57BL/6NCr mouse Neutrophil assessed as reduction in cell viability at 20 uM followed by photo-irradiation with 20 mW/cm^2 light by tryptan blue dye based hemacytometer. It is filed as toxicity.
Data set [9] deals with Staphylococcus aureus. Nature of the data set: Photodynamic antibacterial activity against Methicillin-resistant Staphylococcus aureus in bovine bone assessed as reduction in bacterial colony forming unit at 1.5 g/L followed by photo-irradiation with 20.1 J/cm^2 light for 24 hrs by fluorescence spectroscopy. It is filed as functional.
The test system of data set [10] is Staphylococcus aureus. In words: Photodynamic antibacterial activity against Methicillin-resistant Staphylococcus aureus infected Balb/C mouse assessed as reduction in lymph node bacterial colony forming unit at 1.5 %,ID followed by photo-irradiation with 54 J/cm^2 light measured upto 72 hrs. It is filed as functional.
The test system of data set [11] is Staphylococcus aureus. In words: Photodynamic antibacterial activity against Methicillin-resistant Staphylococcus aureus assessed as reduction in bacterial colony forming unit at 500 microg/ml followed by photo-irradiation with 664 nm for 400 sec. Conditions: dose 500 µg/ml, 0.1111 h. It is filed as functional.
In data set [12] the test system is Staphylococcus aureus. In words: Photodynamic antibacterial activity against Methicillin-resistant Staphylococcus aureus assessed as reduction in bacterial colony forming unit at 50 microg/ml followed by photo-irradiation with 163.8 J/cm^2 for 10 to 30 mins. It is filed as functional. Conditions: dose 50 µg/ml; time 10-30 min.
Data set [13] is described as follows: Photodynamic antibacterial activity against mix of Methicillin-resistant Staphylococcus aureus-Pseudomonas aeruginosa assessed as reduction in bacterial colony forming unit at 300 microg/ml followed by photo-irradiation with 664 nm for 400 sec. It is filed as functional. The settings on record: dose 300 µg/ml, 0.1111 h.
The nature of data set [14]: Photodynamic antibacterial activity against mix of Methicillin-resistant Staphylococcus aureus-Pseudomonas aeruginosa in maxillary sinus model assessed as reduction in bacterial growth at 0.03 % followed by photo-irradiation with 150 mW/cm^2 light by spectrophotometry. It is filed as functional. Further details: scale not given: the % may be the effect or the level left.

Data set [15] concerns Staphylococcus aureus. Nature of the data set: Photodynamic antibacterial activity against Methicillin-resistant Staphylococcus aureus assessed as reduction in bacterial colony forming unit at 3 uM followed by photo-irradiation with 30 J/cm^2 for 30 mins. The settings on record: 0.5 h. It is filed as functional.
For data set [16], the system named is Staphylococcus aureus. Nature of the data set: Photodynamic antibacterial activity against Methicillin-resistant Staphylococcus aureus assessed as reduction in bacterial colony forming unit at 300 microg/ml followed by photo-irradiation with 664 nm for 400 sec. The settings on record: dose 300 µg/ml, 0.1111 h. It is filed as functional.
A short description of data set [17]: Photodynamic antibacterial activity against mix of Methicillin-resistant Staphylococcus aureus-Pseudomonas aeruginosa in maxillary sinus model assessed as reduction in bacterial colony forming unit at 0.03 % followed by photo-irradiation with 150 mW/cm^2 light by spectrophotometry. It is filed as functional.
Data set [18] concerns Staphylococcus aureus. Nature of the data set: Photodynamic antibacterial activity against Methicillin-resistant Staphylococcus aureus assessed as reduction in bacterial growth at 250 microg/ml followed by photo-irradiation with 100 J/cm^2 light for 100 sec. It is filed as functional. Also on record: scale not given: the % may be the effect or the level left. The settings on record: dose 250 µg/ml, 100 s.

Data set [19] in a line: Photodynamic antibacterial activity against mix of Methicillin-resistant Staphylococcus aureus-Pseudomonas aeruginosa assessed as reduction in bacterial colony forming unit at 500 microg/ml followed by photo-irradiation with 664 nm for 400 sec. It is filed as functional. The settings on record: dose 500 µg/ml, 0.1111 h.
The test system of data set [20] is Staphylococcus aureus. Nature of the data set: Photodynamic antibacterial activity against Methicillin-resistant Staphylococcus aureus infected C57 mouse superficial wound model assessed as fold reduction in bacterial growth at 100 microg/ml,po for 15 mins followed by photo-irradiation with 360 J/cm^2 light for 30 mins. It is filed as functional. Conditions: dose 100 µg/ml, time 45 min, 0.75 h.

Data set [21] in a line: Cytotoxicity against C57BL/6NCr mouse Neutrophil assessed as cell viability followed by photo-irradiation with 20 mW/cm^2 light by tryptan blue dye based hemacytometer. It is filed as toxicity. The settings on record: mouse neutrophils, read-out: Activity.
A short description of data set [22]: Photodynamic antibacterial activity against mix of Methicillin-resistant Staphylococcus aureus-Pseudomonas aeruginosa in endotracheal tube model assessed as reduction in growth unit at 500 microg/ml followed by photo-irradiation with 108 J/cm^2 light for 12 mins. The settings on record: dose 500 µg/ml, 0.2 h. Further details: scale not given: the % may be the effect or the level left. It is filed as functional.

Data set [23] deals with Staphylococcus aureus. Nature of the data set: Photodynamic antibacterial activity against Methicillin-resistant Staphylococcus aureus infected C57 mouse excision wound model assessed as fold reduction in bacterial growth at 100 microg/ml,po for 15 mins followed by photo-irradiation with 360 J/cm^2 light for 30 mins. It is filed as functional. The settings on record: dose 100 µg/ml, time 45 min, 0.75 h.

Data set [24] concerns Staphylococcus aureus. In words: Photodynamic antibacterial activity against Methicillin-resistant Staphylococcus aureus assessed as reduction in bacterial growth at 120 uM followed by photo-irradiation with blue light for 10 to 120 min. It is filed as functional. Further details: scale not given: the % may be the effect or the level left. Conditions: time 10-120 min.
In data set [25] the test system is Staphylococcus aureus. In words: Photodynamic antibacterial activity against Methicillin-resistant Staphylococcus aureus assessed as reduction in bacterial growth at 30 uM followed by photo-irradiation with violet light for 10 to 120 min. It is filed as functional. Also on record: scale not given: the % may be the effect or the level left. The settings on record: time 10-120 min.

For `Cc1cc2c(cc1C)N(C[C@H](O)C[C@H](O)CO)C1NC(=O)NC(=O)C1=N2` (stereo not given in full), the Activity turned out to be 90% in data set [1]; 98% in data set [2]; 100% in [3]; 99% in data set [4]; 98% in data set [5].
`Cc1cc(O)c2c3c1-c1c(C)cc(O)c4c1C1c5c(c(O)cc(O)c5-c5c(O)cc(O)c(c5C31)C2=O)C4=O` (stereo not given): the results for the Activity in data set [6] and in [7] were over 6 log10CFU and 92.2%, respectively.
With `CC/N=c1/cc2sc3cc(NCC)c(C)cc3nc-2cc1C.Cl`, the Activity in [8] is under 70%.
For `COc1cc(/C=C/C(=O)CC(=O)/C=C/c2ccc(O)c(OC)c2)ccc1O` [CURCUMIN], the Activity in data set [9] is given as 3.6 log10CFU; in data set [10] it was over 5 log10CFU.
As to `CN(C)c1ccc2nc3ccc(N(C)C)cc3[s+]c2c1.[Cl-]` [METHYLENE BLUE ANHYDROUS], the Activity was 7.39 log10CFU in [11]; 2.2 log10CFU in data set [12]; 6.7 log10CFU in data set [13]; over 99.99% in data set [14]; 7 log10CFU in [15]; 6.7 log10CFU in [16]. The Activity in [17] is reported as 5 log10CFU; in data set [18], over 99%; in data set [19], 7.39 log10CFU; in [22], over 99.9%. In addition, the “fold change (FC)” value is 14 in data set [20] and 25 in data set [23]. Besides, the viability in data set [21] was over 80%.
For the molecule `Cc1cc2nc3c(=O)[nH]c(=O)nc-3n(C[C@H](O)[C@H](O)[C@H](O)COP(=O)(O)O)c2cc1C` [RIBOFLAVIN 5'-PHOSPHATE], the results for the Activity in data set [24] and in [25] were 95.2% and 97%, respectively.
